ChEMBL document CHEMBL3769376, “Discovery of I-BRD9, a Selective Cell Active Chemical Probe for Bromodomain Containing Protein 9 Inhibition” (J Med Chem, 2016)
Calls of active or inactive are those of the source. The calls are words filed in the database; no cut-off is given here.

Assays:
[1] = biological target: D(2) dopamine receptor (Homo sapiens) (UniProt P14416); assay: Agonist activity at human D2 dopamine receptor at <5 uM by scintillation proximity assay
[2] = biological target: T1, Bromodomain-containing protein 9 (Homo sapiens) (UniProt Q9H8M2); settings: Kasumi 1, 10 uM
T1 sequence (whole entry): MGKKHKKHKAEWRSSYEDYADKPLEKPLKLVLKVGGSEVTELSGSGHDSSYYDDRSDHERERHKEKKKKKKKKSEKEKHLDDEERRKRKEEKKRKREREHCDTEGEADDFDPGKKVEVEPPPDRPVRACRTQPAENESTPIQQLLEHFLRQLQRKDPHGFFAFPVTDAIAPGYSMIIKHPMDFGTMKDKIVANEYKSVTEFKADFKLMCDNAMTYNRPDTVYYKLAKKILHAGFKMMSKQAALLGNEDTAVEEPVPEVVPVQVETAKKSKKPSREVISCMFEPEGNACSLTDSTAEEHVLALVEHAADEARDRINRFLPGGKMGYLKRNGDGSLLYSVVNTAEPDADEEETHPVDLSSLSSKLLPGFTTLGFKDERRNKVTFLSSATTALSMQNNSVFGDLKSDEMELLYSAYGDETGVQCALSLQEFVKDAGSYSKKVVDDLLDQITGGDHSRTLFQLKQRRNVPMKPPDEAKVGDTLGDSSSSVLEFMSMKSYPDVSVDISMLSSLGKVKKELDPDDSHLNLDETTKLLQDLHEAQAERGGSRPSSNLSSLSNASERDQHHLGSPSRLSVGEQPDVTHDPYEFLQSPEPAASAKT
Description: Inhibition of BRD9 in human Kasumi-1 cells assessed as downregulation of FES gene at 10 uM after 6 hrs by qPCR method

[3] = biological target: Prostaglandin G/H synthase 2 (Homo sapiens) (UniProt P35354); assay: Inhibition of human COX2 at <5 uM by FLINT assay
[4] = biological target: Adenosine receptor A2a (Homo sapiens) (UniProt P29274); assay: Agonist activity at human Adenosine A2a receptor at <5 uM by TR-FRET assay
Sequence of Adenosine receptor A2a (Homo sapiens) (P29274 whole entry): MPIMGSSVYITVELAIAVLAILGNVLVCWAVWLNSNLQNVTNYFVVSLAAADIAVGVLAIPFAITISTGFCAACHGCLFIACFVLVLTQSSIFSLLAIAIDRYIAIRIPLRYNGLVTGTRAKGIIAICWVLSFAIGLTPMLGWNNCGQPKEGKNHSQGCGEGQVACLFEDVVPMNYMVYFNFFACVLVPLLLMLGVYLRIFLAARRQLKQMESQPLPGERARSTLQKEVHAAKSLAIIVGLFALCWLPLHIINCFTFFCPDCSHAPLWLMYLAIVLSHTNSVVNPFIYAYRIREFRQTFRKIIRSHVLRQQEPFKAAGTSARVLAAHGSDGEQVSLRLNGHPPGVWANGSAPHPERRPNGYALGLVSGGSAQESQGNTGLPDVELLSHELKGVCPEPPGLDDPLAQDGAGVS

[5] = biological target: Vasopressin V1a receptor (Homo sapiens) (UniProt P37288); assay: Antagonist activity at human vasopressin V1a receptor assessed as change in intracellular calcium level at <5 uM by fluorescence assay; assay type: functional, cell-based
[6] = biological target: Muscarinic acetylcholine receptor M2 (Homo sapiens) (UniProt P08172); assay: Antagonist activity at human muscarinic 2 receptor assessed as change in intracellular calcium level at <5 uM by fluorescence assay; assay type: functional, cell-based
Sequence of Muscarinic acetylcholine receptor M2 (Homo sapiens) (P08172 whole entry): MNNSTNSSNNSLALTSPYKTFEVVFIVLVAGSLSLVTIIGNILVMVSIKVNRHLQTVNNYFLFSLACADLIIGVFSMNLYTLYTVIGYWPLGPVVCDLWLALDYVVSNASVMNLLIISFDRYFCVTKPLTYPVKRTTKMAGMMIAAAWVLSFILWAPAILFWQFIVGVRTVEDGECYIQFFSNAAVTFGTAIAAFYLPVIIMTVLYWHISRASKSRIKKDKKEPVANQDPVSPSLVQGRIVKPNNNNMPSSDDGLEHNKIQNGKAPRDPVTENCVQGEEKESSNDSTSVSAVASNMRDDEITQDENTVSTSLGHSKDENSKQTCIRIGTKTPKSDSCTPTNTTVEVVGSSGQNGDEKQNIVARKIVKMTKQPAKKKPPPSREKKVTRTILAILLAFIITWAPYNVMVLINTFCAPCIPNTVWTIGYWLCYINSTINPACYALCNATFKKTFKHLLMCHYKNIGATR

[7] = biological target: Aurora kinase B (Homo sapiens) (UniProt Q96GD4); assay: Inhibition of human aurora B at <5 uM by IMAP assay
Sequence of Aurora kinase B (Homo sapiens) (Q96GD4 whole entry): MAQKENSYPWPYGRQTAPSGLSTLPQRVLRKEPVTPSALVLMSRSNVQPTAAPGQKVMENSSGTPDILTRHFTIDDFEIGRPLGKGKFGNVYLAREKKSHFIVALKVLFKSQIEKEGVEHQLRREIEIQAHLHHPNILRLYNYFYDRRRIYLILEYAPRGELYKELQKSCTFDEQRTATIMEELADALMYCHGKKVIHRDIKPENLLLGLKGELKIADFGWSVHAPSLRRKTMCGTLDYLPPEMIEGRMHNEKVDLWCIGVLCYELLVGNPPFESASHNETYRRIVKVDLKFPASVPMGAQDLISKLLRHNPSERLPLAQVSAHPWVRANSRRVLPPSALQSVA

[8] = biological target: Alpha-1B adrenergic receptor (Homo sapiens) (UniProt P35368); assay: Antagonist activity at human Alpha 1b adrenergic receptor assessed as change in intracellular calcium level at <5 uM by fluorescence assay; assay type: functional, cell-based
[9] = biological target: T1, Bromodomain-containing protein 9 (Homo sapiens); settings: Kasumi 1, 10 uM; remark: listed apart in the source
Description: Inhibition of BRD9 in human Kasumi-1 cells assessed as downregulation of SAMSN1 gene at 10 uM after 6 hrs by qPCR method

[10] = biological target: Phosphatidylinositol 4,5-bisphosphate 3-kinase catalytic subunit gamma isoform (Homo sapiens) (UniProt P48736); assay: Inhibition of human PI3Kgamma at <5 uM by TR-FRET assay
[11] = biological target: Tyrosine-protein kinase Lck (Homo sapiens) (UniProt P06239); assay: Inhibition of human LCK at <5 uM by IMAP assay
[12] = biological target: Amine oxidase [flavin-containing] A (Homo sapiens, UniProt P21397); assay: Inhibition of human MAO-A at <5 uM by FLINT assay
[13] = biological target: Kappa-type opioid receptor (Homo sapiens) (UniProt P41145); assay: Agonist activity at human kappa opiod receptor at <5 uM by scintillation proximity assay
[14] = biological target: 5-hydroxytryptamine receptor 1B (Homo sapiens) (UniProt P28222); assay: Agonist activity at human 5HT1B receptor at <5 uM by scintillation proximity assay
[15] = biological target: Nuclear receptor subfamily 1 group I member 2 (Homo sapiens, UniProt O75469); assay: Agonist activity at human PXR at <5 uM by luciferase reporter gene assay
Sequence of Nuclear receptor subfamily 1 group I member 2 (O75469 whole entry): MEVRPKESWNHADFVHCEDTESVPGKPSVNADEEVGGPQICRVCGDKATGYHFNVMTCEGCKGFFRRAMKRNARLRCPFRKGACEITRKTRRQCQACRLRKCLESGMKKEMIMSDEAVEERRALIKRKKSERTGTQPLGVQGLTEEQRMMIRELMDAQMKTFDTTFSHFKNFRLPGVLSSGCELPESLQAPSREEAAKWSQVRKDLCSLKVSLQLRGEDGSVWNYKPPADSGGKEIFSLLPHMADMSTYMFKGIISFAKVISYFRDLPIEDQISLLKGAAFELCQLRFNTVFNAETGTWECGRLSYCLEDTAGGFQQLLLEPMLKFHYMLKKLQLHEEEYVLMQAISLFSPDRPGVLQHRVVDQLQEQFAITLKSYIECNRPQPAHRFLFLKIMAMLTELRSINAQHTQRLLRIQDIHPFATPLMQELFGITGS

Homo sapiens = species on record: Homo sapiens; assay: Positive modulator activity at human GABA-A receptor at <5 uM by electrophysiology
[16] = biological target: Alpha-2C adrenergic receptor (Homo sapiens) (UniProt P18825); assay: Inhibition of human alpha 2c adrenergic receptor at <5 uM by TR-FRET assay
Cytochrome P450 3A4 = Cytochrome P450 3A4 (Homo sapiens, UniProt P08684); assay: Inhibition of CYP3A4 (unknown origin) preincubated with substrate at <5 uM by mass spectrometry; assay type: ADME
[17] = Lipophilicity, logD of the compound at pH 7.4; assay type: physicochemical; settings: buffer
[18] = biological target: Potassium voltage-gated channel subfamily A member 5 (Homo sapiens) (UniProt P22460); assay: Inhibition of human Kv1.5 channel at <5 uM by electrophysiology
[19] = biological target: T1, Bromodomain-containing protein 9 (Homo sapiens); settings: Kasumi 1, 10 uM; remark: listed apart in the source
Description: Inhibition of BRD9 in human Kasumi-1 cells assessed as downregulation of CLEC1 gene at 10 uM after 6 hrs by qPCR method

[20] = biological target: Beta-2 adrenergic receptor (Homo sapiens) (UniProt P07550); assay: Antagonist activity at human beta-2 adrenergic receptor at <5 uM by TR-FRET assay
[21] = biological target: 5-hydroxytryptamine receptor 2A (Homo sapiens) (UniProt P28223); assay: Agonist activity at human 5HT2A receptor by assessed as change in intracellular calcium level at <5 uM by fluorescence assay; assay type: functional, cell-based
Sequence of 5-hydroxytryptamine receptor 2A (Homo sapiens) (P28223 whole entry): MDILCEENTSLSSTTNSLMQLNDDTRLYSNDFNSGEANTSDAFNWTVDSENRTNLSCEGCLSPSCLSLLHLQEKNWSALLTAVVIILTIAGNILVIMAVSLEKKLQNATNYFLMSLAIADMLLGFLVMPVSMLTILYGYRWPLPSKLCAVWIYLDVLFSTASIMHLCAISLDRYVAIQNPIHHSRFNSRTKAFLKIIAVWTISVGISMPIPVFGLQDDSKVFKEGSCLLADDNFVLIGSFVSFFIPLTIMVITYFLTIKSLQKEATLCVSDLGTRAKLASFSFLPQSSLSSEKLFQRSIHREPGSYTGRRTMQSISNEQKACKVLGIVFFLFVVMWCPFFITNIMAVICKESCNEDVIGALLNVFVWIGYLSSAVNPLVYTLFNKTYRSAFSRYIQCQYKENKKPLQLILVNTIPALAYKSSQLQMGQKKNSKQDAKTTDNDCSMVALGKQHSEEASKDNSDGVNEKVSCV

[22] = biological target: 5-hydroxytryptamine receptor 3A (Homo sapiens) (UniProt P46098); assay: Antagonist activity at human 5HT3 receptor assessed as change in intracellular calcium level at <5 uM by fluorescence assay; assay type: cell-based
[23] = biological target: Amine oxidase [flavin-containing] B (Homo sapiens, UniProt P27338); assay: Inhibition of human MAO-B at <5 uM by FLINT assay
Sequence of Amine oxidase [flavin-containing] B (P27338 whole entry): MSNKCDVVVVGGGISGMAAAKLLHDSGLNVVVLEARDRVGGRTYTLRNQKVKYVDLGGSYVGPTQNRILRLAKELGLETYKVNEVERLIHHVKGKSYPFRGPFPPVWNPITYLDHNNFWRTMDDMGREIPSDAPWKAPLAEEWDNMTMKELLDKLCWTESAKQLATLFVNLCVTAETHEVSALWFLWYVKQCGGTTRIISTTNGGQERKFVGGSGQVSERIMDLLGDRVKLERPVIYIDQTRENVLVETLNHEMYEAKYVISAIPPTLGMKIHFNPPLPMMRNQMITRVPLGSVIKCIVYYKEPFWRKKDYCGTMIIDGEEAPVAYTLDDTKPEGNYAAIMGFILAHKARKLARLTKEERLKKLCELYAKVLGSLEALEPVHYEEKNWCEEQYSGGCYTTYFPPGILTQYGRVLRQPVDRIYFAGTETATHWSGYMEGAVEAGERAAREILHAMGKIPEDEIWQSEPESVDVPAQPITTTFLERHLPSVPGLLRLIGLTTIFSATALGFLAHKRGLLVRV

[24] = biological target: Acetylcholine receptor subunit alpha (Homo sapiens) (UniProt P02708); assay: Inhibition of human alpha1 nACHR assessed as change in intracellular calcium level at <5 uM by fluorescence assay; assay type: cell-based
[25] = biological target: 5-hydroxytryptamine receptor 2A (Homo sapiens) (UniProt P28223); assay: Antagonist activity at human 5HT2A receptor assessed as change in intracellular calcium level at <5 uM by fluorescence assay; assay type: functional, cell-based
[26] = biological target: Acetylcholinesterase (Homo sapiens) (UniProt P22303); assay: Inhibition of human acetylcholinesterase at <5 uM by mass spectrometry
[27] = biological target: Cannabinoid receptor 2 (Homo sapiens) (UniProt P34972); assay: Agonist activity at human CB2 receptor at <5 uM by Yeast FDLu assay
Sequence of Cannabinoid receptor 2 (Homo sapiens) (P34972 whole entry): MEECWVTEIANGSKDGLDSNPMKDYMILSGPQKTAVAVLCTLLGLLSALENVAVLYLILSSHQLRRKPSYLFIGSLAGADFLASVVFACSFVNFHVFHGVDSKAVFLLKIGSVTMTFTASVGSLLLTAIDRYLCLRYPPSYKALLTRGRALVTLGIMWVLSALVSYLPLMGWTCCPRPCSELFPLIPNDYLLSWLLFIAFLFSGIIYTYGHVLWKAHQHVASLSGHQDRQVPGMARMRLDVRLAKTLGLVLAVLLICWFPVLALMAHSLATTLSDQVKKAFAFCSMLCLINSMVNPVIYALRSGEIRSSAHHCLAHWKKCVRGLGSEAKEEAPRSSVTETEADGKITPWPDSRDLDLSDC

[28] = biological target: Sodium channel protein type 5 subunit alpha (Homo sapiens, UniProt Q14524); assay: Inhibition of human Nav1.5 channel at <5 uM by electrophysiology
Sequence of Sodium channel protein type 5 subunit alpha (Q14524 whole entry): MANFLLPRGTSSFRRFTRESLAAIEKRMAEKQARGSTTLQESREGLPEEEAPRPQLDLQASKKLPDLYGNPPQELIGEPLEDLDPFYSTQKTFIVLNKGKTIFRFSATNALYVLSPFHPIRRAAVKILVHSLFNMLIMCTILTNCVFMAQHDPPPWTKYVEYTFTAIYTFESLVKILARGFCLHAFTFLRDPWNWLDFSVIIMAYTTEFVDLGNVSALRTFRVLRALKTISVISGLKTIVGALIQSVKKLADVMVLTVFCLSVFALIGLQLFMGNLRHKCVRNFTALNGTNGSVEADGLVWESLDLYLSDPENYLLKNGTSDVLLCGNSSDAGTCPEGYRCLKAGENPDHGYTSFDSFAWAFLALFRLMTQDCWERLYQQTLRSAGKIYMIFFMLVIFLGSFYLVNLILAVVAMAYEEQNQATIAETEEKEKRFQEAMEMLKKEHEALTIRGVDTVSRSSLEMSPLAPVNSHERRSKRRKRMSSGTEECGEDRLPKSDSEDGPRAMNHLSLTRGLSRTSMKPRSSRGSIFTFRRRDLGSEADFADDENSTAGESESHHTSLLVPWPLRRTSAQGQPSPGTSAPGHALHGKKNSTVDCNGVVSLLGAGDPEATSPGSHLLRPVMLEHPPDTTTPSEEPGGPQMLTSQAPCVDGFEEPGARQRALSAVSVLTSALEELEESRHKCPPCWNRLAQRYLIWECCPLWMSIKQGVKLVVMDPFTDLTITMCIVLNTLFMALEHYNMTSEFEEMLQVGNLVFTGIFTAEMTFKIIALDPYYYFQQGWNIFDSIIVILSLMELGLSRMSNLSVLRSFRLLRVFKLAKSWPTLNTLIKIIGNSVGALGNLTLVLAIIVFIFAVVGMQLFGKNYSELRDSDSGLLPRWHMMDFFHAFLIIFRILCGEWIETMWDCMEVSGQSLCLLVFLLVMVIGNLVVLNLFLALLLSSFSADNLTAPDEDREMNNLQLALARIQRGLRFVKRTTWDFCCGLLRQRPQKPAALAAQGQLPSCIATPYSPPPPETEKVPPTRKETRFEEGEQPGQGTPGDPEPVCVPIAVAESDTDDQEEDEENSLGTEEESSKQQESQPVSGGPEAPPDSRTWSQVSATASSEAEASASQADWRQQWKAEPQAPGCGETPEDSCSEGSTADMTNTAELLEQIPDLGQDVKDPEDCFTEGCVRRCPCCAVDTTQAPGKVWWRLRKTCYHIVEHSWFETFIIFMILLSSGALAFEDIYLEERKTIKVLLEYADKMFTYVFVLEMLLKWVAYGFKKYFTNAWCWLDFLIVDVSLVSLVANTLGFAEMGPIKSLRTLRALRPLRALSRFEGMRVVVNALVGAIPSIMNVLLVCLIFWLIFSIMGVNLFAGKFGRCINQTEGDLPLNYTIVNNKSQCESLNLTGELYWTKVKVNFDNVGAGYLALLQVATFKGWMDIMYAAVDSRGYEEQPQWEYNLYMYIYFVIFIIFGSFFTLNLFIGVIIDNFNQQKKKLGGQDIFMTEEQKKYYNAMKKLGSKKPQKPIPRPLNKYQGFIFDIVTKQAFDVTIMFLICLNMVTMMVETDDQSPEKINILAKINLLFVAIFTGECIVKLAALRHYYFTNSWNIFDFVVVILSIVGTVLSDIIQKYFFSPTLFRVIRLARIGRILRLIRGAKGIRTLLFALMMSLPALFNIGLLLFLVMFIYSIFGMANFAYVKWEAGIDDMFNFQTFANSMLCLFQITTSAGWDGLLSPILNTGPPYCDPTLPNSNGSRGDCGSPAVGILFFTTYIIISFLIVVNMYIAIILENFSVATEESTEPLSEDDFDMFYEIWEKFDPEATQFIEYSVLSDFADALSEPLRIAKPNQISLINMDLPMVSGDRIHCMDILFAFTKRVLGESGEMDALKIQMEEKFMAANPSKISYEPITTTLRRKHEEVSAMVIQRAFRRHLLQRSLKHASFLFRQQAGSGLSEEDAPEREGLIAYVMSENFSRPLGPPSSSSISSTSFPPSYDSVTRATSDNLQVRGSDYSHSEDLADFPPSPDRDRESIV

[29] = biological target: Glutamate receptor ionotropic, NMDA 2B (Homo sapiens) (UniProt Q13224); assay: Antagonist activity at human NMDA 2B receptor assessed as change in intracellular calcium level at <5 uM by fluorescence assay; assay type: cell-based
[30] = biological target: cGMP-inhibited 3',5'-cyclic phosphodiesterase 3A (Homo sapiens) (UniProt Q14432); assay: Inhibition of human PDE3A at <5 uM by luminescence assay
[31] = biological target: Voltage-dependent L-type calcium channel subunit alpha-1C (Homo sapiens, UniProt Q13936); assay: Inhibition of human Cav1.2 channel at <5 uM by electrophysiology

**Q.** What does the source list for `CCn1cc(-c2cccc(C(F)(F)F)c2)c2sc(C(=N)NC3CCS(=O)(=O)CC3)cc2c1=O`?
**A.** Activity [1]: inactive; inhibition [2]: Active; inhibition [3]: inactive; Activity [4]: inactive; inhibition [5]: inactive; inhibition [6]: inactive; inhibition [7]: inactive; inhibition [8]: inactive; inhibition [9]: Active; inhibition [10]: inactive; inhibition [11]: inactive; inhibition (INH) [12]: Not Active; Activity [13]: inactive; Activity [14]: inactive; Activity [15]: Not Active; Activity (Homo sapiens): inactive; inhibition [16]: inactive; inhibition (INH) (Cytochrome P450 3A4): Not Active; logD [17]: 3.7; inhibition [18]: inactive; inhibition [19]: Active; inhibition [20]: inactive; Activity [21]: inactive; inhibition [22]: inactive; inhibition (INH) [23]: Not Active; inhibition [24]: inactive; inhibition [25]: inactive; inhibition [26]: inactive; Activity [27]: inactive; inhibition (INH) [28]: Not Active; inhibition [29]: inactive; inhibition [30]: inactive; inhibition (INH) [31]: Not Active
